From ChEMBL document CHEMBL6087385, “Synthesis and biological evaluation of Ribo 7-N/O/S pyrimidine 9-deaza C-nucleoside analogs as new antiviral agents for inhibiting HCV RNA-dependent RNA polymerases” (Eur J Med Chem, 2024)

How the values were obtained:
[1] = Tmax in Cynomolgus monkey at 1 mg/kg, iv by reverse phase chromatography; type: ADME, organism-based, Macaca fascicularis; details: in vivo
[2] = Tmax in Sprague-Dawley rat at 1 mg/kg, iv by reverse phase chromatography; type: ADME, organism-based; details: in vivo
[3] = AUC (0 to infinity) in female mouse at 1 mg/kg, iv by reverse phase chromatography; type: ADME, organism-based; details: in vivo
[4] = Toxicity in Sprague-Dawley rat assessed as eyes and nares staining at 100 mg/kg, po administered as single dose and measured after 14 days; type: organism-based; details: in vivo, 336 h, time 14 day

SMILES: C[C@@]1(O)[C@H](O)[C@@H](CO)O[C@H]1c1coc2c(N)ncnc12
- Tmax [1]: 1.8 min
- Tmax [2]: 4.8 min
- AUC(0-inf) [3]: 1440 ng·h/mL
- Activity [4]: Non-toxic
